Test results reported in patent publication US20190292189A1, “LIM KINASE INHIBITORS” (VIRONGY, LLC, priority 2016, published 2019).
Where two headings read alike, the source gives them in different places.

Columns and labels:
[1] = target: P450 3A4 (Homo sapiens, UniProt P08684); assay: P450 inhibition at 10 μM; format: in vitro ADME
[2] = test system: p-cofilin in PC-3 prostate cancer cell lines; assay: Cofilin phosphorylation Western blot in PC-3 cells stimulated by HGF; format: cell-based; conditions: HGF-stimulated PC-3 cells; 50 nM
Description: PC3 cells were cultured at a density of 0.5×10^6 cells/mL in 60 mm culture dishes in 10% FBS RPMI1640 media. Then, the cells were treated with DMSO and the indicated concentration of Limk inhibitors. After incubating for 24 h, the cells were rinsed with ice-cold PBS twice and collected by spinning down at 4° C. in 10,000 rpm for 5 min Cellular lysates were prepared by suspending cells in SDS sample buffer, 120 mmol/L Tris, 4% SDS, 20% glycerol, 0.1 mg/mL bromophenol blue, and 100 mmol/L DTT (pH 6.8). After brief sonication, the lysates were heated at 95° C. for 5 minutes. The cell lysates were separated by 12% SDS-PAGE and transferred to Immobilon-P membranes (Millipore Corp) Immunostaining was done using antibodies specific for phospho-Cofilin (Cell Signaling, #3313) and β-Actin (GeneScript, #A00702) antibodies and the corresponding second antibodies for whole immunoglobulins from mouse or rabbit (Amersham Biosciences). Immunoreactive proteins were detected by chemoluminescence using the Pierce ECL Western Blotting Substrate (Thermo Scientific). We quantified the actual levels of proteins by using the Multigauge ver 3.0 software (Fujifilm). The gels were stained with Coomassie Brilliant Blue R-250 (0.25%) for 1 hour and then destained (all solutions from Bio-Rad) to check the loading amount of protein samples on the gels.

[3] = target: P450 2C9 (Homo sapiens, UniProt P11712); assay: P450 inhibition at 10 μM; format: in vitro ADME
P450 2C9, sequence (P11712 whole entry): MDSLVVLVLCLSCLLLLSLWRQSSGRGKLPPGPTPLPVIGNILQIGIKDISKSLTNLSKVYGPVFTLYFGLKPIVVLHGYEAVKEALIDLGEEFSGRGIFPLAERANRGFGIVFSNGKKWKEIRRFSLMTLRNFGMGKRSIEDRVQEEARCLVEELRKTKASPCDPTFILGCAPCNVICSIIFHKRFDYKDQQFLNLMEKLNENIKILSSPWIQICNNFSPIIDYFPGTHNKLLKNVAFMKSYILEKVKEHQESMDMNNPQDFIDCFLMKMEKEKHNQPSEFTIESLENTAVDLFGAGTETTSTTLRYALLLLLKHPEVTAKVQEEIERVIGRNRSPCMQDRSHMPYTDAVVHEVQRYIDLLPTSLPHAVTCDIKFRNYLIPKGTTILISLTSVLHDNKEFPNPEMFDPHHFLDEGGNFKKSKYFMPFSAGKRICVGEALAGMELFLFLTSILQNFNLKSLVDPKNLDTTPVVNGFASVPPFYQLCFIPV

[4] = Microsomal stability, human liver microsomes; format: in vitro ADME
[5] = Plasma pharmacokinetics studies on rats; conditions: rats
Description: In vivo pharmacokinetics (PK) studies were conducted for selected compounds during the whole optimization at various stages in order to identify structural elements that are favorable for in vivo applications, and/or to evaluate the feasibility of optimized Limk inhibitors for animal studies.

[6] = test system: cofilin serine 3 phosphorylation in CEM-SS T cells; assay: Western blot of cofilin serine 3 phosphorylation in CEM-SS T cells (time course); format: cell-based, human; conditions: 100 μM
Description: FIG. 10. Chemical and Biochemical characterization of R10015. a, Chemical structure of R10015 and its docking into the crystal structure of LIMK1 (PDB ID 3S95, Chain A). […] CEM-SS T cells treated with R10015 (100 μM) for a time course, and the phosphorylation of cofilin, LIMK, and PAK1/2 were measured by Western Blot. Levels of each protein or GAPDH were also measured for loading control. d, R10015 inhibits Jurkat T cell chemotaxis in responding to SDF-1. e, R10015. f, R10015 inhibits chemotactic actin activity. Resting CD4 T cells were treated with R10015, and then exposed to SDF-1 for a time course. Actin polymerization were measured by FITC-phalloidin staining. g, the relative intensity of F-actin staining was also plotted.
One million cells were lysed in NuPAGE LDS Sample Buffer (Invitrogen), separated by SDS-PAGE, and then transferred onto nitrocellulose membranes (Invitrogen). The membranes were washed in TBST for 3 min and then blocked for 30 min at room temperature with Starting Block blocking buffer (Pierce). For probing with different antibodies, blots were incubated with rabbit anti-LIMK1 antibodies (Cell Signaling), with rabbit anti-p-coflin antibodies (Cell Signaling) or with a mouse anti-PAK1/2 antibody (Cell Signaling). These antibodies were diluted in 2.5% milk/TBST and rocked overnight at 4° C. […]

[7] = target: Limk1 (Homo sapiens, UniProt P53667); assay: Limk1 biochemical assay (Reaction Biology, 10-dose IC50); set-up: His; purchased Reaction Biology Corporation; host or cells: insect cells
Limk1, sequence (P53667 285-638): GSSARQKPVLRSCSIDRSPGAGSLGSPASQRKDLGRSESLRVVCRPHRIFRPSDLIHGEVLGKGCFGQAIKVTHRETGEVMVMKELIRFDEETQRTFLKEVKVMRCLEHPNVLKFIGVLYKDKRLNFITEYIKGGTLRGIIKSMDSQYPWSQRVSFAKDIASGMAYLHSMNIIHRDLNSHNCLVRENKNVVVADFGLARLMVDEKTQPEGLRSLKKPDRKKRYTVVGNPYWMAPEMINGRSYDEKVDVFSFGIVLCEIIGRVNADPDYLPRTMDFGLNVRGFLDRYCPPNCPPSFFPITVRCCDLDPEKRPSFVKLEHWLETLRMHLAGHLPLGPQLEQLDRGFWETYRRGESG

[8] = test system: RVFV (rift valley fever virus); format: cell-based; conditions: Vero cells
[9] = target: T1, STK16 (Homo sapiens, UniProt O75716); assay: Kinase profiling at 1 μM (Reaction Biology); format: biochemical; conditions: ATP 10 μM
T1 construct: purchased Reaction Biology Corporation
T1 sequence (O75716 whole entry): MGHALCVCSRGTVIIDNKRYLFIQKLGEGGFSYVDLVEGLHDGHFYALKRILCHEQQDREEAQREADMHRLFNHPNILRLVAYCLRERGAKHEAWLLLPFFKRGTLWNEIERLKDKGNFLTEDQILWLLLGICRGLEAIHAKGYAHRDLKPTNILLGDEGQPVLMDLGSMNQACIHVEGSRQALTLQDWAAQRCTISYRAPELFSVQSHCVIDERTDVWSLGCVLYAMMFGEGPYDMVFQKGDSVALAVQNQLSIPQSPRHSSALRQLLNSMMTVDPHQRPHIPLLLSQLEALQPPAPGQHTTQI
Description: Profiling was carried out at Reaction Biology Corporation following a protocol described at its website: http://www.reactionbiology.com/webapps/site/. The % data were the average from two determinations. ATP concentration used: 10 μM; Staurosporine was used as the positive control.
Biochemical assays for all Limk inhibitors and kinase profiling were carried out in Reaction Biology Corporation and followed the protocols described on its website. […] Compounds were tested at 1 μM with duplicate experiments in profiling assays. […] Reactions were carried out at 10 μM ATP, 1 μM substrate cofilin, and 50 nM Limk1 (final concentrations).

[10] = test system: HIV-1(NL4-3); format: cell-based; conditions: non-toxic dosages
[11] = test system: single-cycle HIV-1(Env) in CEM-SS T cells; assay: Viral 2-LTR circles, real-time PCR; format: cell-based
[12] = test system: HIV-1(Env); assay: Virion release, p24 in supernatant; format: cell-based
[13] = test system: HIV-1(AD8); format: cell-based; conditions: non-toxic dosages

P450 3A4, sequence (P08684 whole entry): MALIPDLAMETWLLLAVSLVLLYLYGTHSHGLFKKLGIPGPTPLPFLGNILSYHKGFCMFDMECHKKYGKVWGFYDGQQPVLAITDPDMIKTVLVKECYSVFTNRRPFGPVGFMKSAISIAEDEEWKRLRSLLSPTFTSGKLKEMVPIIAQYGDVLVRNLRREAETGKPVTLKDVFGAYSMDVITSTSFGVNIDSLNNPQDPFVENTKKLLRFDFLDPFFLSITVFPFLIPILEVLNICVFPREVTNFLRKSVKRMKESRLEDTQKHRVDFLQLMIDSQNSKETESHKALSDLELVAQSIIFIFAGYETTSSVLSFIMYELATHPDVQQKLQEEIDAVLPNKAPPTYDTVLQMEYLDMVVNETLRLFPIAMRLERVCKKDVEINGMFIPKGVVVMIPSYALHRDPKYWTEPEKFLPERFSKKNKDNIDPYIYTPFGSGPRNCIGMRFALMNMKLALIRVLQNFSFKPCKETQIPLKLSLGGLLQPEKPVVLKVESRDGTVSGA

SMILES | P450 % inh. at 10 μM 3A4 [1] | inhibition of cofilin phosphorylation in PC-3 cells (Western blot) [2] | P450 % inh. at 10 μM 2C9 [3] | Microsomal Stability t1/2 (min) Human [4] | AUC (iv) ([5]; iv dosing 1 mg/kg) | Cl (iv) ([5]; iv dosing 1 mg/kg) | T1/2 (iv) ([5]; iv dosing 1 mg/kg) | Yd (iv) ([5]; iv dosing 1 mg/kg) | F (%) (po) ([5]; po dosing 2 mg/kg) | Cmax ([5]; read-out: Cmax (iv), iv dosing 1 mg/kg) | cofilin serine 3 phosphorylation [6] | IC50 ([7]; Table 8, read-out: LIMK1 IC50) | IC50 ([7]; read-out: Limk1 IC50) | RVFV infection [8] | activity at 1 µM [9] | X4 viral infection of blood resting CD4 T cells [10] | viral nuclear migration (2-LTR circles) [11] | viral release [12] | R5 viral infection of memory CD4 T cells [13]
Cc1c[nH]c2ncnc(-c3ccc(NC(=O)N(CCO)c4ccccc4)cc3)c12 [Compound 18b, 1-(2-Hydroxyethyl)-3-(4-(5-methyl-7H-pyrrolo[2,3-d]pyrimidin-4-yl)phenyl)-1-phenylurea] | 13% | significant inhibition | 14% | 87 min | 8.4 µM·h | 5.2 mL/min/kg | 2.2 h | 0.4 L/kg | 36% | 7.7 µM | – | – | – | – | – | – | – | – | –
COC(=O)c1ccc2[nH]c(C3CCN(c4ncnc5[nH]cc(Cl)c45)CC3)nc2c1 [Compound R10015, Methyl 2-(1-(5-chloro-7H-pyrrolo[2,3-d]pyrimidin-4-yl)piperidin-4-yl)-1Hbenzo[d]imidazole-5-carboxylate] | – | – | – | – | – | – | – | – | – | – | drastic inhibition | 38 ± 5 nM | ~38 nM | inhibited | 48.6% | inhibition | inhibited | inhibited | inhibition
